Read-outs that look alike come from different tables or passages of the source. Ends that are not written are not given here.
How the values were obtained:
[1] = tested on: gram negative bacteria (Pseudomonas aeruginosa ATCC 15692, Acinetobacter baumenni ATCC 19606, Escherichia coli ATCC 25922, Pseudomonas aeruginosa TO-5A); format: cell-based
Protocol: (§1) The minimum inhibitory concentration (MIC) of ATX-101 (SEQ ID NO: 1289) was determined for various gram negative and gram positive bacteria. The bacteria, Pseudomonas aeruginosa ATCC 15692, Acinetobacter baumenni ATCC 19600, Escherichia coli ATCC 25922, Pseudomonas aeruginosa TO-5A (clinical isolate), Enterococous faecium CCUG 37832, Enterococcus faecium CTC 492, Micrococcus luteus ATCC 9341 and Escherichie coli NCIMB 12210 were grown in the presence of various concentrations of ATX-101 and/or antibiotic.
(§2) ATX-101 was dissolved in Mueller-Hinton broth to 1.25 times of the desired assay concentration. Antibiotics were dissolved in Mueller-Hinton broth and Mueller-Hinton broth with ATX-101 at a concentration of 1.25 times the highest desired assay concentrations. Antibiotics were pharmaceutical grade purchased from Sigma-Aldrich.
(§3) Two-fold serial dilutions of antibiotics were made in Mueller-Hinton with different concentrations of ATX-101, and the solutions were placed in four parallel wells is Nunc 384-well micro plates (30 μl per well in Nunc 242757 microplates). A group of 8 wells with no addition of antibiotics for each ATX-101 concentration was included on each micro plate as a growth reference.
(§4) At the day of analysis, overnight TSB cultures inoculated from freeze stocks (6 ml in 50 ml tube tilted to 45-degrees angle, 200 rpm, 2.5 cm amplitude, 37° C.) were diluted in TSB until the OD800 was 0.10, and further diluted 1:40 in Mueller-Hinton broth. Each well in the 384-well assay plates was inoculated with 7.5 μl of the diluted culture, giving the same dilution of the culture in the assay cultures. The microplates were placed in plastic bags and incubated without shaking at 37° C. The optical density at 600 nm in the microwells was measured after approximately 19 hours of incubation, and the relative growth yield was calculated based on the growth in the reference groups. The MIC value was set to the highest concentration giving less than 30% growth in all 4 parallel wells within the sample groups. The microplates were further incubated for 6 hours, and optical density in the cultures was measured once more for confirmation of the estimated MIC-values.

[2] = tested on: gram positive bacteria (Enterococcus faecium CCUG 37832, Enterococcus faecium CTC 492, Micrococcus luteus ATCC 9341); format: cell-based
Protocol: as §1, §2, §3, §4

E. faecium CTC 492 = experiment: MIC assay of antibiotics with ATX-101; format: cell-based, Enterococcus faecium
Protocol: as §1, §2, §3, §4
(§5) The APIM peptide was dissolved in Mueller-Hinton broth to 1.25 times of the desired assay concentration. Antibiotics were dissolved in Mueller-Hinton broth and Mueller-Hinton broth with APIM at a concentration of 1.25 times the highest desired assay concentrations. Antibiotics were pharmaceutical grade purchased from Sigma-Aldrich.
(§6) Two-fold serial dilutions of antibiotics were made in Mueller-Hinton with different concentrations of APIM, and the solutions were placed in four parallel wells in Nunc 384-well micro plates (30 μl per well in Nunc 242757 microplates). A group of 8 wells with no addition of antibiotics for each APIM concentration was included on each micro plate as growth reference.
as §4, with “inoculated” for “inoculated from”, “OD600” for “OD800”, “culture.” for “culture, giving the same dilution of the culture in the assay cultures.”, “yield in each well” for “yield”

E. coli NCIMB 12210 = experiment: MIC assay of antibiotics with ATX-101; format: cell-based, Escherichia coli; settings: FIG. 4
Protocol: as §1, §2, §3, §4, §5, §6
as §4, with “inoculated” for “inoculated from”, “OD600” for “OD800”, “culture.” for “culture, giving the same dilution of the culture in the assay cultures.”, “yield in each well” for “yield”

E. faecium TO-12 = format: cell-based
Protocol: as §2, §3, §4
(§7) The MICS for various APIM peptides were determined for various bacteria, as described above.

P. aeruginosa = format: cell-based
Protocol: as §2, §3, §4, §7

[3] = tested on: Staphylococcus aureus NCTC 6571; format: cell-based
Protocol: as §2, §3, §4, §7

[4] = tested on: Staphylococcus aureus MRSA 1040s; experiment: microbe, parasite or virus in culture; format: cell-based
Protocol: as §2, §3, §4, §5, §6
as §4, with “inoculated” for “inoculated from”, “OD600” for “OD800”, “culture.” for “culture, giving the same dilution of the culture in the assay cultures.”, “yield in each well” for “yield”
In view of the anti-bacterial effect of ATX-101 on strains of MRSA, the MIC for a variety of APIM variants was determined using Staphylococcus aureus MRSA 1040s. […] A cell penetrating peptide (SEQ ID NO: 337) present in all of the APIM peptides, was used as a negative control.
Next, the effect of APIM peptides on the MIC of antibiotics was determined using Staphylococcus aureus MRSA 1040s.
as §7

[5] = tested on: Staphylococcus aureus MRSA 1096; format: cell-based
Protocol: as §2, §3
At the day of analysis, overnight TSB cultures inoculated from freeze stocks (6 ml in 50 ml tube tilted to 45-degrees angle, 200 rpm, 2.5 cm amplitude, 37° C.) were diluted in TSB until the OD800 was 0.10, and further diluted 1:40 in Mueller-Hinton broth. […] The optical density at 600 nm in the microwells was measured after approximately 19 hours of incubation, and the relative growth yield was calculated based on the growth in the reference groups. […] The microplates were further incubated for 6 hours, and optical density in the cultures was measured once more for confirmation of the estimated MIC-values.

[6] = tested on: E. faecium CCUG 37832 (TO-3); format: cell-based, Enterococcus faecium
Protocol: as §2, §3, §4
Accordingly, concentrations of 8 μg/ml and 16 μg/ml of ATX-101 were combined with various antibiotics selected from; 2,4-Diamin, S. methizol, S. methoxa, S. dimetho, Surfaceta, Trimeth, Flumeq, Levoflox, Pruliflox, Metronid and Nitrofur.
as §7

MRSA 1040 (u50) biofilm = experiment: MRSA biofilm under flow (IBIDI flow-system); format: cell-based, Staphylococcus aureus
Protocol: The IBIDI flow-system coupled with EVOS Auto Imaging system was optimized and used for testing the effect of ATX-101 on MRSA biofilm under flow. MRSA 1040 (u50) was used as model organism; it normally produces a dense biofilm in the growth channel during 36 hours of flow. The effect of 3 different concentrations of ATX-101 was tested (7 μg/ml, 3.5 μg/ml and 0.8 μg/ml). The flow system was programmed with share stress similar to those found in capillary networks (3.49 dyne/cm^2), 2% Luria Bertani (LB) was used for dilution and flow medium.

[7] = starting concentration of ATX-101 150 μg/ml

Question: Which MIC [1] does the source give for MDRWLVKWKKKRKIRRRRRRRRRRR [ATX-101] here?
Answer: The MIC was 5 to 10 µg/mL.

Question: And the “growth inhibited by ATX-101 from (concentration)” value ([1]; FIG. 1, gram negative bacteria)?
Answer: The value was “about 1 μM”.

Question: And the MIC [2]?
Answer: Its MIC is “about 1 μg/ml”.

Question: What about the “growth inhibited by ATX-101 from (concentration)” value ([2]; FIG. 2, gram positive bacteria) of the same sequence?
Answer: Its value is “about 1 μM”.

Question: And the “effect on inhibition of bacterial growth by novobiocin” value (E. faecium CTC 492; 6.5 μg/ml or 13 μg/ml ATX-101, about 0.5-2 μg/ml novobiocin)?
Answer: The value was “enhances the inhibition of bacterial growth”.

Question: What about the “growth at higher concentration of ATX-101” value (E. faecium CTC 492; 20 μg/ml ATX-101, with or without ampicillin or novobiocin) of the same sequence?
Answer: Its value is “no growth was observed”.

Question: What about the “reduction of the MIC for novobiocin” value (E. coli NCIMB 12210) of the same sequence?
Answer: Its value is 16 fold.

Question: And the MIC (E. faecium TO-12)?
Answer: The MIC was 16.8 µM.

Question: And the MIC (P. aeruginosa)?
Answer: The MIC was 37.9 µM.

Question: What about the MIC ([3]; NCTC 6571) of the same sequence?
Answer: The MIC was 37.9 µM.

Question: And the “MIC of ATX-101” value ([3]; Staphylococcus aureus NCTC 6571)?
Answer: The value was 150 µg/mL.

Question: What about the Factor of inhibition [3, 7] of the same sequence?
Answer: The Factor of inhibition was 1.

Question: What about the MIC ([4]; 1040s) of the same sequence?
Answer: Its MIC is 7.5 µM.

Question: And the “MIC of ATX-101” value ([4]; Table 4, MRSA 1040s)?
Answer: Its value is 37.5 µg/mL.

Question: What about the MIC ([4]; Table 5, peptide alone, MRSA 1040s) of the same sequence?
Answer: Its MIC is 32 µg/mL.

Question: And the MIC ([4]; Table 6, alone, MRSA 1040s)?
Answer: The MIC was 16 µg/mL.

Question: What about the “MIC of Erythromycin (Relative values)” value ([4]; concentration of APIM peptide 7.5 μg/ml, MRSA 1040s) of the same sequence?
Answer: Its value is 1000.

Question: What about the “MIC of Erythromycin (Relative values)” value ([4]; concentration of APIM peptide 15 μg/ml, MRSA 1040s) of the same sequence?
Answer: Its value is 125.

Question: What about the Factor of inhibition [4, 7] of the same sequence?
Answer: Its Factor of inhibition is 0.25.

Question: And the “MIC of ATX-101” value ([5]; MRSA 1096)?
Answer: Its value is 9.375 µg/mL.

Question: And the Factor of inhibition [5, 7]?
Answer: The Factor of inhibition was 0.0625.

Question: What about the MIC ([6]; ATX-101 alone, text b504) of the same sequence?
Answer: The MIC was 7.5 µg/mL.

Question: And the MIC ([6]; Table 9, E. faecium TO-3)?
Answer: The MIC was 7.5 µM.

Question: And the biofilm formation (MRSA 1040 (u50) biofilm; 0.8 μg/ml ATX-101, 36 hours, FIG. 15)?
Answer: The biofilm formation was “biofilm formation is inhibited”.

Question: What about the biofilm formation (MRSA 1040 (u50) biofilm; 7 μg/ml ATX-101, 36 hours, FIG. 14) of the same sequence?
Answer: Its biofilm formation is “biofilm formation is inhibited”.

Question: And the “effect on MRSA biofilm under flow” value (MRSA 1040 (u50) biofilm; 7 μg/ml, 3.5 μg/ml and 0.8 μg/ml)?
Answer: The value was “Good effect”.

— US10570180B2, “Anti-bacterial agents and their use in therapy” (priority 2015, dated 2020)
